{"source": "patent US20230031406A1", "about": "“COMPOUNDS AND COMPOSITIONS FOR TREATING CONDITIONS ASSOCIATED WITH NLRP ACTIVITY” (Novartis AG, priority 2018, published 2023)"}
{"tested_on": "PMA-differentiated THP-1 cells", "assay": "IL-1β production in PMA-differentiated THP-1 cells stimulated with gramicidin (hTHP-1 assay containing 2% fetal bovine serum; Procedures 1 and 2)", "assay_type": "cell-based, human", "details": "Homo sapiens, THP-1, Table B1; 2% fetal bovine serum; class symbols; read-out: Average IC50 of compounds in hTHP-1 assay: hTHP-1 IC50", "protocol": "(§1) The following protocol is suitable for testing the activity of the compounds disclosed herein. Procedure 1: IL-1β Production in PMA-Differentiated THP-1 Cells Stimulated with Gramicidin.\n(§2) THP-1 cells were purchased from the American Type Culture Collection and sub-cultured according to instructions from the supplier. Cells were cultured in complete RPMI 1640 (containing 10% heat inactivated FBS, penicillin (100 units/ml) and streptomycin (100 μg/ml)), and maintained in log phase prior to experimental setup. Prior to the experiment, compounds were dissolved in dimethyl sulfoxide (DMSO) to generate a 30 mM stock. The compound stock was first pre-diluted in DMSO to 3, 0.34, 0.042 and 0.0083 mM intermediate concentrations and subsequently spotted using Echo550 liquid handler into an empty 384-well assay plate to achieve desired final concentration (e.g. 100, 33, 11, 3.7, 1.2, 0.41, 0.14, 0.046, 0.015, 0.0051, 0.0017 μM). DMSO was backfilled in the plate to achieve a final DMSO assay concentration of 0.37%. The plate was then sealed and stored at room temperature until required.\n(§3) THP-1 cells were treated with PMA (Phorbol 12-myristate 13-acetate) (20 ng/ml) for 16-18 hours. On the day of the experiment the media was removed and adherent cells were detached with trypsin for 5 minutes. Cells were then harvested, washed with complete RPMI 1640, spun down, and resuspended in RPMI 1640 (containing 2% heat inactivated FBS, penicillin (100 units/ml) and streptomycin (100 μg/ml). The cells were plated in the 384-well assay plate containing the spotted compounds at a density of 50,000 cells/well (final assay volume 50 μl). Cells were incubated with compounds for 1 hour and then stimulated with gramicidin (5 μM) (Enzo) for 2 hours. Plates were then centrifuged at 340 g for 5 min. Cell free supernatant (40 μL) was collected using a 96—CHannel PlateMaster (Gilson) and the production of IL-1β was evaluated by HTRF (cisbio). The plates were incubated for 18 h at 4° C. and read using the preset HTRF program (donor emission at 620 nm, acceptor emission at 668 nm) of the SpectraMax i3x spectrophotometer (Molecular Devices, software SoftMax 6). A vehicle only control and a dose titration of CRID3 (100-0.0017 μM) were run concurrently with each experiment.\n(§4) Procedure 2: IL-1β Production in PMA-Differentiated THP-1 Cells Stimulated with Gramicidin.\n(§5) THP-1 cells were purchased from the American Type Culture Collection and sub-cultured according to instructions from the supplier. Prior to experiments, cells were cultured in complete RPMI 1640 (containing 10% heat inactivated FBS, penicillin (100 units/ml) and streptomycin (100 μg/ml)), and maintained in log phase prior to experimental setup. Prior to the experiment THP-1 were treated with PMA (Phorbol 12-myristate 13-acetate) (20 ng/ml) for 16-18 hours. Compounds were dissolved in dimethyl sulfoxide (DMSO) to generate a 30mM stock. On the day of the experiment the media was removed and adherent cells were detached with trypsin for 5 minutes. Cells were then harvested, washed with complete RPMI 1640, spun down, resuspended in RPMI 1640 (containing 2% heat inactivated FBS, penicillin (100 units/ml) and streptomycin (100 μg/ml). The cells were plated in a 384-well plate at a density of 50,000 cells/well (final assay volume […]). Compounds were first dissolved in assay medium to obtain a 5× top concentration of 500 μM. 10 step dilutions (1:3) were then undertaken in assay medium containing 1.67% DMSO. 5× compound solutions were added to the culture medium to achieve desired final concentration (e.g. 100, 33, 11, 3.7, 1.2, 0.41, 0.14, 0.046, 0.015, 0.0051, 0.0017 μM). Final DMSO concentration was at 0.37%. Cells were incubated with compounds for 1 hour and then stimulated with gramicidin (5 μM) (Enzo) for 2 hours. Plates were then centrifuged at 340 g for 5 min. Cell free supernatant (40 μL) was collected using a 96—CHannel PlateMaster (Gilson) and the production of IL-1β was evaluated by HTRF (cisbio). […]", "units": {"IC50": "µM"}}
{"compound": "Cc1nc2c(c(NC(=O)N=S(N)(=O)c3cnc(C(C)(C)O)s3)c1C(C)C)CCC2", "note": "(single isomer, unassigned) [Compound 116b, (R) or (S)-2-(2-hydroxypropan-2-yl)-N′-((3-isopropyl-2-methyl-6,7-dihydro-5H-cyclopenta[b]pyridin-4-yl)carbamoyl)thiazole-5-sulfonimidamide]", "IC50": "5 to 30"}
{"compound": "CCc1c(C)nc2c(c1NC(=O)N=S(N)(=O)c1cnc(C(C)(C)O)s1)CCC2", "note": "(single isomer, unassigned) [Compound 117b, (R) or (S)-N′-((3-ethyl-2-methyl-6,7-dihydro-5H-cyclopenta[b]pyridin-4-yl)carbamoyl)-2-(2-hydroxypropan-2-yl)thiazole-5-sulfonimidamide]", "IC50": "5 to 30"}
{"compound": "CC(C)(O)c1nc(CCO)c(S(N)(=O)=NC(=O)Nc2c3c(nc4c2CCC4)CCC3)s1", "note": "(single isomer, unassigned) [Compound 118a, (R) or (S)-N′-((1,2,3,5,6,7-hexahydrodicyclo-penta[b,e]pyridin-8-yl)carbamoyl)-4-(2-hydroxyethyl)-2-(2-hydroxypropan-2-yl)thiazole-5-sulfonimidamide]", "IC50": "0.2 to 1"}
{"compound": "CC(C)n1ccc(S(N)(=O)=NC(=O)Nc2c3c(nc4c2CCC4)CCC3)n1", "note": "(single isomer, unassigned) [Compound 119a, (R) or (S)-N′-((1,2,3,5,6,7-hexahydrodicyclo-penta[b,e]pyridin-8-yl)carbamoyl)-1-isopropyl-1H-pyrazole-3-sulfonimidamide]", "IC50": "1 to 5"}
{"tested_on": "PMA-differentiated THP-1 cells", "assay": "IL-1β production in PMA-differentiated THP-1 cells stimulated with gramicidin (hTHP-1 assay containing 2% fetal bovine serum; Procedures 1 and 2)", "assay_type": "cell-based, human", "details": "Homo sapiens, THP-1, Table B1; 2% fetal bovine serum; numeric bounds; read-out: Average IC50 of compounds in hTHP-1 assay: hTHP-1 IC50", "protocol": "as §1, §2, §3, §4, §5", "units": {"IC50": "µM"}}
{"compound": "Cc1nc2c(c(NC(=O)N=S(N)(=O)c3cnc(C(C)(C)O)s3)c1C(C)C)CCC2", "note": "(single isomer, unassigned) [Compound 116a, (S) or (R)-2-(2-hydroxypropan-2-yl)-N′-((3-isopropyl-2-methyl-6,7-dihydro-5H-cyclopenta[b]pyridin-4-yl)carbamoyl)thiazole-5-sulfonimidamide]", "IC50": "> 30"}
{"compound": "CCc1c(C)nc2c(c1NC(=O)N=S(N)(=O)c1cnc(C(C)(C)O)s1)CCC2", "note": "(single isomer, unassigned) [Compound 117a, (S) or (R)-N′-((3-ethyl-2-methyl-6,7-dihydro-5H-cyclopenta[b]pyridin-4-yl)carbamoyl)-2-(2-hydroxypropan-2-yl)thiazole-5-sulfonimidamide]", "IC50": "> 30"}
{"compound": "CC(C)(O)c1nc(CCO)c(S(N)(=O)=NC(=O)Nc2c3c(nc4c2CCC4)CCC3)s1", "note": "(single isomer, unassigned) [Compound 118b, (S) or (R)-N′-((1,2,3,5,6,7-hexahydrodicyclo-penta[b,e]pyridin-8-yl)carbamoyl)-4-(2-hydroxyethyl)-2-(2-hydroxypropan-2-yl)thiazole-5-sulfonimidamide]", "IC50": "> 24"}
{"compound": "CC(C)n1ccc(S(N)(=O)=NC(=O)Nc2c3c(nc4c2CCC4)CCC3)n1", "note": "(single isomer, unassigned) [Compound 119b, (S) or (R)-N′-((1,2,3,5,6,7-hexahydrodicyclo-penta[b,e]pyridin-8-yl)carbamoyl)-1-isopropyl-1H-pyrazole-3-sulfonimidamide]", "IC50": "> 30"}
{"compound": "CNS(=O)(=NC(=O)Nc1c2c(nc3c1CCC3)CCC2)c1ccc(CN(C)C)cc1", "note": "(single isomer, unassigned) [Compound 120a, (R) or (S)-4-((dimethylamino)methyl)-N′-((1,2,3,5,6,7-hexahydro-dicyclopenta[b,e]pyridin-8-yl)carbamoyl)-N-methylbenzene-sulfonimidamide]", "IC50": "> 30"}
{"tested_on": "PMA-differentiated THP-1 cells", "assay": "IL-1β production in PMA-differentiated THP-1 cells stimulated with gramicidin (hTHP-1 assay containing 2% fetal bovine serum; Procedures 1 and 2)", "assay_type": "cell-based, human", "details": "Table B1; 2% fetal bovine serum; class symbols; read-out: Average IC50 of compounds in hTHP-1 assay: hTHP-1 IC50", "protocol": "as §1, §2, §3, §4, §5", "units": {"IC50": "µM"}}
{"compound": "CC(C)(O)c1nc(CO)c(S(N)(=O)=NC(=O)Nc2c3c(nc4c2CCC4(C)C)CCC3)s1", "note": "(single isomer, unassigned) [Compound 121a, (R) or (S)-N′-((3,3-dimethyl-1,2,3,5,6,7-hexahydro-dicyclopenta[b,e]pyridin-8-yl)carbamoyl)-4-(hydroxymethyl)-2-(2-hydroxypropan-2-yl)thiazole-5-sulfonimidamide]", "IC50": "0.04 to 0.2"}
{"compound": "CC(C)(O)c1nc(CO)c(S(N)(=O)=NC(=O)Nc2c3c(nc4c2CCC4(C)C)CCC3)s1", "note": "(single isomer, unassigned) [Compound 121b, (S) or (R)-N′-((3,3-dimethyl-1,2,3,5,6,7-hexahydro-dicyclopenta[b,e]pyridin-8-yl)carbamoyl)-4-(hydroxymethyl)-2-(2-hydroxypropan-2-yl)thiazole-5-sulfonimidamide]", "IC50": "5 to 30"}
{"compound": "CC1(C)CCc2c1nc1c(c2NC(=O)N=S(N)(=O)c2ccn(C(F)F)n2)CCC1", "note": "(single isomer, unassigned) [Compound 122a, (R) or (S)-1-(difluoromethyl)-N′-((3,3-dimethyl-1,2,3,5,6,7-hexahydrodicyclo-penta[b,e]pyridin-8-yl)carbamoyl)-1H-pyrazole-3-sulfonimidamide]", "IC50": "0.04 to 0.2"}
{"compound": "CC1(C)CCc2c1nc1c(c2NC(=O)N=S(N)(=O)c2ccn(C(F)F)n2)CCC1", "note": "(single isomer, unassigned) [Compound 122b, (S) or (R)-1-(difluoromethyl)-N′-((3,3-dimethyl-1,2,3,5,6,7-hexahydrodicyclo-penta[b,e]pyridin-8-yl)carbamoyl)-1H-pyrazole-3-sulfonimidamide]", "IC50": "5 to 30"}
{"compound": "Cc1c(C2CC2)nc2c(c1NC(=O)N=S(N)(=O)c1cnc(C(C)(C)O)s1)CCC2", "note": "(single isomer, unassigned) [Compound 124a, (S) or (R)-N′-((2-cyclopropyl-3-methyl-6,7-dihydro-5H-cyclopenta[b]pyridin-4-yl)carbamoyl)-2-(2-hydroxypropan-2-yl)thiazole-5-sulfonimidamide]", "IC50": "5 to 30"}
{"compound": "Cc1c(C2CC2)nc2c(c1NC(=O)N=S(N)(=O)c1cnc(C(C)(C)O)s1)CCC2", "note": "(single isomer, unassigned) [Compound 124b, (R) or (S)-N′-((2-cyclopropyl-3-methyl-6,7-dihydro-5H-cyclopenta[b]pyridin-4-yl)carbamoyl)-2-(2-hydroxypropan-2-yl)thiazole-5-sulfonimidamide]", "IC50": "0.2 to 1"}
{"tested_on": "PMA-differentiated THP-1 cells", "assay": "IL-1β production in PMA-differentiated THP-1 cells stimulated with gramicidin (hTHP-1 assay containing 2% fetal bovine serum; Procedures 1 and 2)", "assay_type": "cell-based, human", "details": "Table B1; 2% fetal bovine serum; numeric bounds; read-out: Average IC50 of compounds in hTHP-1 assay: hTHP-1 IC50", "protocol": "as §1, §2, §3, §4, §5", "units": {"IC50": "µM"}}
{"compound": "CNS(=O)(=NC(=O)Nc1c2c(nc3c1CCC3)CCC2)c1ccc(CN(C)C)cc1", "note": "(single isomer, unassigned) [Compound 120b, (S) or (R)-4-((dimethylamino)methyl)-N′-((1,2,3,5,6,7-hexahydro-dicyclopenta[b,e]pryidin-8-yl)carbamoyl)-N-methylbenzene-sulfonimidamide]", "IC50": "> 30"}
{"tested_on": "PMA-differentiated THP-1 cells", "assay": "IL-1β production in PMA-differentiated THP-1 cells stimulated with gramicidin (hTHP-1 assay containing 2% fetal bovine serum; Procedures 1 and 2)", "assay_type": "cell-based, human", "details": "Table B2; 2% fetal bovine serum; class symbols; read-out: hTHP-1 IC50", "protocol": "as §1, §2, §3, §4, §5", "units": {"IC50": "µM"}}
{"compound": "CC(C)c1cnc(F)c(C(C)C)c1NC(=O)N=S(N)(=O)c1cnc(C(C)(C)O)s1", "note": "(single isomer, unassigned) [Compound 115a, (S) or (R)-N′-((2-fluoro-3,5-diisopropylpyridin-4-yl)carbamoyl)-2-(2-hydroxypropan-2-yl)thiazole-5-sulfonimidamide]", "IC50": "5 to 30"}
{"compound": "CC(C)c1cnc(F)c(C(C)C)c1NC(=O)N=S(N)(=O)c1cnc(C(C)(C)O)s1", "note": "(single isomer, unassigned) [Compound 115b, (R) or (S)-N′-((2-fluoro-3,5-diisopropylpyridin-4-yl)carbamoyl)-2-(2-hydroxypropan-2-yl)thiazole-5-sulfonimidamide]", "IC50": "1 to 5"}
